Assay results taken from US9113629B2, “4-amino-6-(4-substituted-phenyl)-picolinates and 6-amino-2-(4-substituted-phenyl)-pyrimidine-4-carboxylates and their use as herbicides” (DOW AGROSCIENCES LLC, priority 2013, dated 2015).
Where two headings read alike, the source gives them in different places.

How the values were obtained:
[1] = system: Key Broadleaf Weed and Crop Species; assay: Post-emergent Test II herbicidal activity (Table 5); type: in vivo; settings: post-emergence, 336 h, post-emergent, 14 days after application; for pest or weed control at 70 g/ha: 70 g ai/ha; for pest or weed control at 140 g/ha: 140 g ai/ha
How it was run: (§1)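 Test species were raised 7–21 d under greenhouse conditions until reaching the first or second true leaf, sprayed with formulated compound at 187 L/ha, and kept subirrigated to avoid wash-off. Fourteen days later, damage was rated visually on a 0–100% scale against untreated plants.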

[2] = system: Key Grass and Sedge Weeds as well as Grass Crops; assay: Post-emergent Test II herbicidal activity (Table 6); type: in vivo; settings: post-emergence, 336 h; for pest or weed control at 70 g/ha: application rate 70 g ai/ha; for pest or weed control at 140 g/ha: application rate 140 g ai/ha
How it was run: as §1

[3] = ABUTH: velvetleaf (Abutilon theophrasti), read-out: Visual Growth Reduction (%) 14 Days After Application ABUTH
[4] = AMARE: redroot pigweed (Amaranthus retroflexus), read-out: Visual Growth Reduction (%) 14 Days After Application AMARE
[5] = BRSNN: oilseed-rape, canola (Brassica napus), read-out: Visual Growth Reduction (%) 14 Days After Application BRSNN
[6] = CHEAL: lambsquarters (Chenopodium album), read-out: Visual Growth Reduction (%) 14 Days After Application CHEAL
[7] = EPHHL: wild poinsettia (Euphorbia heterophylla), read-out: Visual Growth Reduction (%) 14 Days After Application EPHHL
[8] = HELAN: sunflower (Helianthus annuus), read-out: Visual Growth Reduction (%) 14 Days After Application HELAN
[9] = VIOTR: wild pansy (Viola tricolor), read-out: Visual Growth Reduction (%) 14 Days After Application VIOTR
[10] = Triticum aestivum, TRZSS (wheat), read-out: Visual Growth Reduction (%) 14 Days After Application, TRZSS
[11] = CYPES: yellow nutsedge (Cyperus esculentus), read-out: Visual Growth Reduction (%) 14 Days After Application, CYPES
[12] = DIGSA: crabgrass (Digitaria sanguinalis), read-out: Visual Growth Reduction (%) 14 Days After Application, DIGSA
[13] = ECHCG: barnyardgrass (Echinochloa crus-galli), read-out: Visual Growth Reduction (%) 14 Days After Application, ECHCG
[14] = ORYSA: rice (Oryza sativa), read-out: Visual Growth Reduction (%) 14 Days After Application, ORYSA
[15] = SETFA: giant foxtail (Setaria faberi), read-out: Visual Growth Reduction (%) 14 Days After Application, SETFA
[16] = SORVU: grain sorghum (Sorghum vulgare), read-out: Visual Growth Reduction (%) 14 Days After Application, SORVU
[17] = ZEAMX: maize, corn (Zea mays), read-out: Visual Growth Reduction (%) 14 Days After Application, ZEAMX

COC(=O)c1nc(-c2ccc(I)c(F)c2)c(Cl)c(N)c1Cl [Compound 13, Methyl 4-amino-3,5-dichloro-6-(3-fluoro-4-iodophenyl)picolinate]
pest or weed control at 70 g/ha [1, 3]: 85 to 94% | pest or weed control at 140 g/ha [1, 3]: 95 to 100% | pest or weed control at 70 g/ha [1, 4]: 85 to 94% | pest or weed control at 140 g/ha [1, 4]: 95 to 100% | pest or weed control at 70 g/ha [1, 5]: 85 to 94% | pest or weed control at 140 g/ha [1, 5]: 85 to 94% | pest or weed control at 70 g/ha [1, 6]: 95 to 100% | pest or weed control at 140 g/ha [1, 6]: 95 to 100% | pest or weed control at 70 g/ha [1, 7]: 0 to 29% | pest or weed control at 140 g/ha [1, 7]: 30 to 44% | pest or weed control at 70 g/ha [1, 8]: 95 to 100% | pest or weed control at 140 g/ha [1, 8]: 95 to 100% | pest or weed control at 70 g/ha [1, 9]: 0 to 29% | pest or weed control at 140 g/ha [1, 9]: 0 to 29% | pest or weed control at 70 g/ha [2, 10]: 45 to 59% | pest or weed control at 140 g/ha [2, 10]: 60 to 74% | pest or weed control at 70 g/ha [2, 11]: 75 to 84% | pest or weed control at 140 g/ha [2, 11]: 75 to 84% | pest or weed control at 70 g/ha [2, 12]: 60 to 74% | pest or weed control at 140 g/ha [2, 12]: 75 to 84% | pest or weed control at 70 g/ha [2, 13]: 60 to 74% | pest or weed control at 140 g/ha [2, 13]: 75 to 84% | pest or weed control at 70 g/ha [2, 14]: 0 to 29% | pest or weed control at 140 g/ha [2, 14]: 0 to 29% | pest or weed control at 70 g/ha [2, 15]: 45 to 59% | pest or weed control at 140 g/ha [2, 15]: 75 to 84% | pest or weed control at 70 g/ha [2, 16]: 85 to 94% | pest or weed control at 140 g/ha [2, 16]: 85 to 94% | pest or weed control at 70 g/ha [2, 17]: 60 to 74% | pest or weed control at 140 g/ha [2, 17]: 60 to 74%
